Assay [1] concerns the target T1, Proteinase-activated receptor 4 (Homo sapiens) (UniProt Q96RI0).
T1 sequence (whole entry): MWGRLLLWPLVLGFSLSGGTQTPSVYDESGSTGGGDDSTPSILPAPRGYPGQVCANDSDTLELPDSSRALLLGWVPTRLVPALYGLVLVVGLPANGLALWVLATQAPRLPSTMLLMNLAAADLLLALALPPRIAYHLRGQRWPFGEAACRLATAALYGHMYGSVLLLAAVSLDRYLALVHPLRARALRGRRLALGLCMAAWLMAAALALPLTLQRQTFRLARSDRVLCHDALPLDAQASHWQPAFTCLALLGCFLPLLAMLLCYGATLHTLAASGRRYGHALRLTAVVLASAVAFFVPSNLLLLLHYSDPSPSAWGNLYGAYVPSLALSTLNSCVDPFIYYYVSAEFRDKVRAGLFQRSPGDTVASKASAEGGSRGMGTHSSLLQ
Description: Antagonist activity against PAR4 in washed human platelets assessed as inhibition of alpha-thrombin-induced platelet aggregation at 30 to 300 nM pre-incubated for 20 mins before alpha-thrombin addition and measured over 100 to 500 secs by optical aggregometry. The class given is functional.

For assay [2], the target named is T2, Proteinase-activated receptor 1 (Homo sapiens) (UniProt P25116).
T2 sequence (whole entry): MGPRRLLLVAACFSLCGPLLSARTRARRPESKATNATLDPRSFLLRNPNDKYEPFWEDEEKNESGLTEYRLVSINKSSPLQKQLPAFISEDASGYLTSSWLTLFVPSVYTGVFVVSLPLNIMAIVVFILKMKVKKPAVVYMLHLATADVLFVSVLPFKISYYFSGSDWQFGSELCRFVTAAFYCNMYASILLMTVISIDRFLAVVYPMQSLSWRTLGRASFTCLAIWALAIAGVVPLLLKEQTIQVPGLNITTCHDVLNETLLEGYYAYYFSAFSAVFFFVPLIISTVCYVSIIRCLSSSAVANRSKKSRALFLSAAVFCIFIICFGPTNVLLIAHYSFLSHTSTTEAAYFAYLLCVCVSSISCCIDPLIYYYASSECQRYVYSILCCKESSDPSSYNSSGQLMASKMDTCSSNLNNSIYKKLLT
Description: Antagonist activity against PAR1 in washed human platelets assessed as inhibition of alpha-thrombin-induced platelet aggregation at 30 to 300 nM pre-incubated for 20 mins before alpha-thrombin addition and measured over 100 to 500 secs by optical aggregometry. It is filed as functional.

The source made the active and inactive calls. No cut-off for these calls is given here. Where a SMILES comes first, the peptide text is derived from it. [ ]: non-standard residue; d: D form. The star is where a group is joined. Phe(4-guanidino) = N=C(N)Nc1ccc(C[C@H](N)C(=O)O)cc1; Phe(4-F) = N[C@@H](Cc1ccc(F)cc1)C(=O)O; X1 = O=C(/C=C/c1ccccc1)*

On to `COc1cc(OCc2cccc(-c3ccc(C#N)nc3)c2)c2cc(-c3cn4nc(OC)sc4n3)oc2c1`, for which the inhibition entry in assay [1] was “Active”.

In the case of `CC(C)C[C@H](NC(=O)[C@H](Cc1ccc(NC(=N)N)cc1)NC(=O)[C@H](Cc1ccc(F)cc1)NC(=O)/C=C/c1ccccc1)C(=O)N[C@@H](CCCNC(=N)N)C(=O)N[C@@H](CCCNC(=N)N)C(=O)O` (X1-[Phe(4-F)][Phe(4-guanidino)]LRR-OH), the inhibition result in assay [2] was “Active”.
